Measurements as given in patent US4347319A, “Microbiological epoxidation process” (priority 1980, dated 1982).

How the values were obtained:
[1] = test system: P(40) particulate fraction of Methylosinus sp. (CRL-15, NRRL B-11,202); assay: Effect of metals on propylene epoxidation and methane hydroxylation; format: biochemical; details: metal 10^-3 M, P(40) fraction; for Methane-Oxidizing Activity: control 4.0; for Propylene-Oxidizing Activity: control […]
Experimental: (§1) The oxidation of methane and propylene by particulate [(P)40 and (P)80] fractions and soluble [S(80)] fraction was measured at 30° C. by estimating the production of methanol and propylene oxide, respectively. The reaction mixtures contained in […]: 150 mM potassium phosphate buffer, pH 7.0 containing 5 mM MgCl2 b, 0.6 ml; 10μ moles NADH, and cellular fraction.
(§2) Reaction mixtures were contained in 10 ml vials at 4° C. Vials were sealed with rubber caps. The gaseous phase in the vials was removed using vacuum and then was replaced with a gas mixture of methane or propylene and oxygen at a 1:1, v/v ratio. Oxidation of other gaseous n-alkanes and n-alkanes was examined as described above. For liquid substrates, 10 μl of substrate was used directly.
Since the methane mono-oxygenase from methane-utlizing bacteria is a copper or iron-containing protein (Tonge et al., J. Biochem., 161: 333-344 (1977)), we have examined the effect of copper and iron salts on the oxidation of methane and propylene by the P(40) particulate fraction of Methylosinus sp. (CRL-15, NRRL B-11,202). The rate of hydroxylation of methane to methanol and epoxidation of propylene to propylene oxide was increased twofold in the presence of added copper salts (Table XII).

[2] = molecular target: T1, cell fractions of Methylosinus sp. (CRL-15, NRRL B-11,202) (Methylosinus trichosporium, UniProt Q50541+Q9KX50+Q9KX51); assay: Oxidation by cell fractions P(40), P(80), S(80); format: biochemical; details: P(40) particulate fraction; alkene to epoxide, alkane to alcohol; 30° C.
T1 sequence (Q9KX50 40-431): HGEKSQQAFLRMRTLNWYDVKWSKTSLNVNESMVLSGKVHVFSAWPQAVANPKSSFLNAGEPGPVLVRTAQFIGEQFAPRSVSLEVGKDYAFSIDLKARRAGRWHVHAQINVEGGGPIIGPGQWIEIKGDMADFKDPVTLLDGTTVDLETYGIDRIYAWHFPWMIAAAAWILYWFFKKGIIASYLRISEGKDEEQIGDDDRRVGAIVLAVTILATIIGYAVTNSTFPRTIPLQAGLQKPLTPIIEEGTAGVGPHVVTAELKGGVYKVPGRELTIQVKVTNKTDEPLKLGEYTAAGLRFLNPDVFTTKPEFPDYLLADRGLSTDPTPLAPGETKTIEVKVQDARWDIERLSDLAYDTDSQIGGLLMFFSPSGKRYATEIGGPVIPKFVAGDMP
T1 sequence (Q50541 1-252): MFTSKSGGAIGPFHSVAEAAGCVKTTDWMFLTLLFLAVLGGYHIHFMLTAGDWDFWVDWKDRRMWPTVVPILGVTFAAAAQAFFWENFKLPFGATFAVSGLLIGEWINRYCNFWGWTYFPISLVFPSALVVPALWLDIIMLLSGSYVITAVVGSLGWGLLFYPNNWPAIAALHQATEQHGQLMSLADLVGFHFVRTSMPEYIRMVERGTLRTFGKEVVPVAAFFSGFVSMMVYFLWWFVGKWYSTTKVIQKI
T1 sequence (Q9KX51 1-256): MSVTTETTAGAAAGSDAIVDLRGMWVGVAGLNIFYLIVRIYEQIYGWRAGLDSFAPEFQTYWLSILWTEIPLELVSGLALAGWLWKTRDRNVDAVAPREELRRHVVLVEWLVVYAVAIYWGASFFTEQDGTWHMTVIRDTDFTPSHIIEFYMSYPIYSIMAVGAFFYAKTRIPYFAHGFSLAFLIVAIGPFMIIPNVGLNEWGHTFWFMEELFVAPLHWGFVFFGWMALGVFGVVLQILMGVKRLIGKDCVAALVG
Experimental: Cells were washed twice with 25 mM potassium phosphate buffer, pH 7.0 containing 5 mM MgCl2. Cells were suspended in the same buffer. The cell suspensions at 4° C. were disintegrated by a single passage through a French Pressure cell (15,000 lb./in.^2) and centrifuged at 5000×g. for 15 min. to remove unbroken bacteria. The supernatant solution (crude extract) was then centrifuged at 40,000×g. for 30 min., yielding particulate P(40) and soluble S(40) fractions. The S(40) fraction was subsequently centrifuged at 80,000×g. for 60 min., yielding particulate P(80) and soluble S(80) fractions. The particulate fractions [P(40) and P(80)] were suspended in 25 mM potassium phosphate buffer, pH 7.0, containing 5 mM MgCl2 and homogenized at 4° C.
as §1, §2
The products of epoxidation of n-alkenes and hydroxylation of n-alkanes were assayed by flame ionization gas chromatography using a stainless steel column (12'×1/8") packed with 10% Carbowax 20 M on 80/100 Chromosorb W and Porapak Q column. The column temperature was maintained isothermally at 120° C. The carrier gas flow rate was 30 ml/min. of helium. The various products were identified by retention time comparisons and co-chromatography with authentic standards.
Specific activities were expressed as μ moles of products formed per hour per mg. protein. Concentrations of protein in various fractions were determined by the method of Lowry et al., J. Biol. Chem., 193: 265-275 (1951).

[3] = test system: Methylococcus capsulatus (CRL M1) NRRL B-11,219; assay: Oxidation by washed cell suspensions of methane-grown cells; format: cell-based; details: methane-grown cell-suspension; pH 7.0; 3° C.
Experimental: The pH of the nutrient medium was adjusted to 7.0 by the addition of acid or base and 50 ml samples of the nutrient medium were charged into a plurality of 300 ml shaker flasks. The shaker flasks were inoculated with an inoculating loop of cells from an agar plate containing homogeneous colonies of the microorganisms on the plate (the purity of the isolates was confirmed by microscopic examination. The isolates had been maintained on agar plates under an atmosphere of methane and air having a 1:1 v/v gas ratio which had been transferred evey two weeks. The gaseous phase of the inoculated flasks was then replaced with a gas mixture comprised of methane and air having a ratio of 1:1 on a v/v basis. The inoculated flasks were sealed air tight and were incubated on a rotary shaker of orbital radius 2.5 cm at 250 rpm and at 30° C. for two days until turbidity in the medium had developed.
The cells were harvested by centrifugation at 10,000×g. at 4° C. for 30 minutes. The cell pellet was washed twice with a 0.15 M phosphate buffer at a pH of 7.0 (containing 0.002 M MgCl2). The washed cells were then suspended in a 0.15 M phosphate buffer at pH 7.0.
A 0.5 ml sample of each washed cell suspension (2 mg cells) was put into 10 ml vials at 4° C. which were sealed with a rubber cap. The gaseous phase of the vials was removed with vacuum and then was replaced with a gas mixture of the oxidative substrate (e.g., methane) and oxygen at a 1:1 v/v ratio. The vials were then incubated at 30 ° C. on a rotary shaker at 300 rpm. Samples of product (3 μl) were withdrawn periodically with a microsyringe and the products were analyzed by gas chromatography (ionization flame detector column).
The newly discovered and isolated microorganism strains of the present invention were each grown aerobically in the presence of methane in the manner described above. The methane-grown microbial cells were then washed, recovered and put to use in oxidizing an oxidative substrate by the procedure described above except in the case of a liquid substrate 10 μl of the substrate were used.

[4] = test system: Methylosinus trichosporium OB3b (NRRL B-11,196); assay: Oxidation by cell suspensions of methane-grown cells; format: cell-based; details: methane-grown cell-suspension; pH 7.0; 3° C.
[5] = test system: purified secondary alcohol dehydrogenase from Pichia sp. NRRL Y-11,328; assay: Inhibitors of purified yeast SADH; format: biochemical; details: primary alcohols tested at 10^-3 M
Experimental: Large scale cultures of Pichia sp. NRRL Y-11,328 were grown with aeration at 30° C. in a 14-liter New Brunswick f fermentor in a mineral salt medium containing methanol (0.4%, v/v) as the sole carbon source. The cells (200 g., wet weight) were suspended in […] sodium phosphate buffer, pH 7.0, containing 1 mM dithiothreitol (buffer A), and crude extracts were prepared as described previously. To the crude extracts, 18 ml. of protamine sulfate solution [2% solution in 0.1 M tris (hydroxymethyl) aminomethane (tris) base] was added dropwise with continuous stirring. After standing for 30 min., the extracts were centrifuged at 20,000×g. for 60 min. The supernatant solution was fractionated with solid ammonium sulfate. Extracts were brought to 50% of saturation with respect to ammonium sulfate by addition of 313 g. of the salt per liter of extract. Precipitated proteins was removed by centrifugation, and 137 g. of ammonium sulfate was added per liter of the supernatant liquid to bring it to 70% of saturation. Material precipitating between 50 and 70% of saturation was collected by centrifugation and dissolved in buffer A. This preparation was dialyzed overnight against buffer A, and the dialyzed material was applied to a DEAE-cellulose column (5×40 cm) that had been equilibrated with buffer A. The sample was washed with 200 ml. of buffer A and eluted with 2 liters of buffer A that contained NaCl in a linear gradient running from a concentration of 0 to 0.5 M. Fractions of 15 ml. were collected. Fractions containing secondary alcohol dehydrogenase activity were pooled and were termed DEAE-cellulose eluate. The DEAE-cellulose eluate was concentrated by ammonium sulfate fractionation.
Secondary alcohol dehydrogenase activity was measured spectrophotometrically at 340 nm with a NAD^+ as an electron acceptor. The reaction mixture, in a total 3.0 ml., contained 50 mM phosphate buffer, pH 8,0, 5 μ moles NAD^+, crude extracts, and substrate. The reactions were started by addition of 100 µl of 0.1 M substrate and the rate of NAD^+ reduction was measured. Protein concentration was determined by the method of Lowry et al.
Various primary alcohols not oxidized by secondary alcohol dehydrogenase were tested as potential inhibitors of enzyme activity.

[6] = test system: purified secondary alcohol dehydrogenase (SADH) from Pseudomonas sp. ATCC 21439; assay: Kinetics and substrate specificity of purified SADH; format: biochemical
[7] = test system: purified secondary alcohol dehydrogenase from Pichia sp. NRRL Y-11,328; assay: Substrate specificity, electron acceptor and stoichiometry of purified yeast SADH; format: biochemical; details: examined spectrophotometrically
[8] = test system: purified secondary alcohol dehydrogenase (SADH) from Pseudomonas sp. ATCC 21439; assay: Effect of metal-chelating agents and thio reagents on purified SADH; format: biochemical; details: final concentration of 1 mM; measured spectrofluorometrically
Experimental: Secondary alcohol dehydrogenase (SADH) from an obligate methanol utilizer, Pseudomonas sp. ATCC 21439 was purified as follows. […] 0.05 M sodium phosphate buffer, pH 7.0 with 0.5 mM dithiothretol (buffer A) and were disrupted sonically (5×1 min.). The crude extract was separated by centrifugation. The crude extract was heat-treated at 50° C. in a water bath for 10 minutes. The resulting precipitate was removed by centrifugation. To the supernatant solution, 25 ml of protamine sulfate solution (2% solution in 0.1 M Tris base) was added dropwise with continuous stirring. After standing for 30 minutes, the extract was centrifuged. The supernatant solution was fractionated with solid ammonium sulfate. […] This DEAE-cellulose eluate was concentrated by ammonium sulfate fractionation. Material precipitating between 30 and 50% ammonium sulfate saturation was collected by centrifugation and dialyzed overnight against A. This fraction was further washed and filtered through an Amicon unit with XM 50 membrane. The concentrated fraction (6 ml) inside the Amicon unit was applied to an Affi-Gel Blue column (0.8 cm×18 cm) which had been equilibrated with buffer A for affinity chromatography. The column was washed overnight with buffer A (0.18 ml./min.) and then was eluted with buffer A containing 5 mM NAD. Each 1 ml. fraction was collected.
The purified secondary alcohol dehydrogenase enzyme (SADH) may be used directly for converting C3 -C6 secondary alcohols to the corresponding methyl ketones by the procedures described above; however, a source of NAD^+ must be added to the reaction medium. One can determine the NAD-linked secondary alcohol dehydrogenase activity with a fluorescence spectrophotometer (Perkin Elmer, Model MPF 44A) by following the formation of reduced NAD (Ex 340 nm, Em 460 nm). The assay system (3 ml.) will typically contain: sodium phosphate buffer pH 7.0, 150 μmol; NAD 1.0 μmol; a given amount of enzyme preparation; and 20 μmol secondary alcohol. The reaction is started by the addition of secondary alcohol. One unit of SADH enzyme activity represents the reduction of one nmole NAD per minute.
The effect of metal-chelating agents and chioreagents on the activity of the purified SADH enzyme were studied. […] The possibility of ethanol or n-propanol as an inhibitor was studied.

[Cl][Cu] [Cuprous Chloride]
Methane-Oxidizing Activity [1]: 7.2 μmoles/hr/mg protein | Propylene-Oxidizing Activity [1]: 9.2 μmoles/hr/mg protein

CC [Ethane]
Rate of Product Formation [2]: 3.2 μ moles/hr/mg of protein | Conversion Rate to Ethanol [3]: 2.0 μmoles/hr./mg./protein | Conversion Rate to Ethanol [4]: 1.3 μmoles/hr./mg./protein

[Cl][Fe]([Cl])[Cl] [Ferric Chloride]
Methane-Oxidizing Activity [1]: 4.8 μmoles/hr/mg protein | Propylene-Oxidizing Activity [1]: 5.8 μmoles/hr/mg protein

c1c[nH]cn1 [Imidazole]
inhibition of secondary alcohol dehydrogenase activity [5]: strongly inhibited

O=Cc1ccccc1 [benzaldehyde]
oxidation by SADH [6]: not oxidized

CCC(O)CO (stereo not shown) [butane 1,2-diol]
oxidation by the purified enzyme [7]: not oxidized | oxidation by SADH [6]: not oxidized

C=O [formaldehyde]
oxidation by SADH [6]: not oxidized

CC(C)CO [isobutanol]
oxidation by SADH [6]: not oxidized

N#C[S][Hg][S]C#N [mercuric thiocyanate]
inhibition of secondary alcohol dehydrogenase activity [5]: inhibited

O=C(O)c1cc[c]([Hg+])cc1.[OH-] [p-hydroxymercuribenzoate]
% inhibition of SADH activity [8]: 100% | inhibition of secondary alcohol dehydrogenase activity [5]: strongly inhibited

Oc1ccccc1 [phenol]
oxidation by SADH [6]: not oxidized

CCC=O [propanal]
relative percent rate of oxidation ([6]; 2-butanol = 100%): 2%

O=[N+]([O-])[O-].[Ag+] [silver nitrate]
inhibition of secondary alcohol dehydrogenase activity [5]: inhibited

O=C(O)CCC(=O)O [succinic acid]
oxidation by SADH [6]: not oxidized

Ferrous Sulfate
Methane-Oxidizing Activity [1]: 4.8 μmoles/hr/mg protein | Propylene-Oxidizing Activity [1]: 5.9 μmoles/hr/mg protein
